Activity calls are given as the source filed them.
How the values were obtained:
[1] = molecular target: T1, Histone-lysine N-methyltransferase NSD2 (Homo sapiens, UniProt O96028); format: biochemical
T1 sequence (O96028 whole entry): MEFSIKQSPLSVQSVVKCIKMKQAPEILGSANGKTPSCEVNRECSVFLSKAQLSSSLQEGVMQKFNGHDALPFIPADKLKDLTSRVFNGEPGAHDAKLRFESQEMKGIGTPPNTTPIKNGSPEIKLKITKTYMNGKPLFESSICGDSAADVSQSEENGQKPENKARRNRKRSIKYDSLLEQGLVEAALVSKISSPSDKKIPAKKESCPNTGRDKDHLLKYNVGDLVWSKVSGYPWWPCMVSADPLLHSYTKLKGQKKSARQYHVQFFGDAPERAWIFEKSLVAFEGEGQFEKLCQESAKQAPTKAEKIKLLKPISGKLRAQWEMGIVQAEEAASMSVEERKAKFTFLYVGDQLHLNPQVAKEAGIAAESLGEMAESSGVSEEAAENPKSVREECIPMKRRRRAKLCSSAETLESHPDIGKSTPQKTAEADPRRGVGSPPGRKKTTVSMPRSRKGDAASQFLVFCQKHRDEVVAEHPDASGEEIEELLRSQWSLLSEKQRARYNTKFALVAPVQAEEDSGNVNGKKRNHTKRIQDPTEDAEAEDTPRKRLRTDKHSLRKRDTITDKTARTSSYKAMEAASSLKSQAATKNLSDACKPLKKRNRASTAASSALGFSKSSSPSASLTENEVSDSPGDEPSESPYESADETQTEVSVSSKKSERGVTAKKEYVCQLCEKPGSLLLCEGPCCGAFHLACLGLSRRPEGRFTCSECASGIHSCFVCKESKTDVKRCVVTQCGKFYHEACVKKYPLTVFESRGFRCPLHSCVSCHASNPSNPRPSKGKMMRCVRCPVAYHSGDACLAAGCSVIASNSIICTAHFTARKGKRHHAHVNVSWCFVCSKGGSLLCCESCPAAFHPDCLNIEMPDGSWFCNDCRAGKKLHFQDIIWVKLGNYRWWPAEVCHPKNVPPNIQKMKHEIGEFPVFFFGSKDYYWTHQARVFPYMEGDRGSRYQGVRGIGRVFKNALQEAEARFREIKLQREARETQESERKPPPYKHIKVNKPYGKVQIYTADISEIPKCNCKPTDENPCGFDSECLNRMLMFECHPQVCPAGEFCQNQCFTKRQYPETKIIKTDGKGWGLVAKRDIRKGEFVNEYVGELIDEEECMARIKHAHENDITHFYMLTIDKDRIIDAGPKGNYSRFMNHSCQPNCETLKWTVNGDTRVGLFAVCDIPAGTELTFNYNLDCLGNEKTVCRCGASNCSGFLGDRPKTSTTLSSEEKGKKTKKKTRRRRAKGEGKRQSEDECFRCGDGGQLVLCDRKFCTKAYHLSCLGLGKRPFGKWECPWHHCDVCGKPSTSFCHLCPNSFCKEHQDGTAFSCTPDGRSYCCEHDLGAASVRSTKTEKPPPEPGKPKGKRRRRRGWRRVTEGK

[2] = molecular target: T2, Tyrosyl-DNA phosphodiesterase 2 (Homo sapiens, UniProt O95551); test: potency against TDP2 phosphodiesterase activity – biochemical, epi absorbance, IC50, dose response (AID 743297)
T2 sequence (O95551 whole entry): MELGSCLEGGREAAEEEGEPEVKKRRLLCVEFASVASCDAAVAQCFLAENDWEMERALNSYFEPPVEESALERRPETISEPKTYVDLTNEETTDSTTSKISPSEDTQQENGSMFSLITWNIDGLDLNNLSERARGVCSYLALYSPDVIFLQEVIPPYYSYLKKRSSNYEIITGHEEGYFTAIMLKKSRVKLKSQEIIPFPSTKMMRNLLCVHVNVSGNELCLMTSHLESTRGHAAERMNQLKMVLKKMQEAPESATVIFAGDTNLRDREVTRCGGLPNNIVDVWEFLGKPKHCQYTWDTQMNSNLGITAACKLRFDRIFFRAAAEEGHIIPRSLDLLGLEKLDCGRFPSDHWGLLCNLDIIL

[3] = system: Streptococcus sp. 'group A'; test: Streptococcus pyogenes SK(-)GAS viability under kanamycin – luminescence, BacTiterGlo, confirmation, counter-screen for streptokinase expression inhibitor project, dose response (AID 1900); format: functional, organism-based
[4] = system: Streptococcus; test: GAS UMAA2166 growth inhibition – luminescence, BacTiterGlo, counter-screen for streptokinase expression inhibitor project, dose response (AID 1915); format: functional, organism-based;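 also: potency for reduction of bacterial viability or growth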
[5] = molecular target: T3, Insulin-degrading enzyme (Homo sapiens, UniProt P14735); test: recombinant IDE activation, cell-free – biochemical, fluorescence polarization, counter-screen for IDE activator project, dose response (AID 588681)
T3 sequence (P14735 whole entry): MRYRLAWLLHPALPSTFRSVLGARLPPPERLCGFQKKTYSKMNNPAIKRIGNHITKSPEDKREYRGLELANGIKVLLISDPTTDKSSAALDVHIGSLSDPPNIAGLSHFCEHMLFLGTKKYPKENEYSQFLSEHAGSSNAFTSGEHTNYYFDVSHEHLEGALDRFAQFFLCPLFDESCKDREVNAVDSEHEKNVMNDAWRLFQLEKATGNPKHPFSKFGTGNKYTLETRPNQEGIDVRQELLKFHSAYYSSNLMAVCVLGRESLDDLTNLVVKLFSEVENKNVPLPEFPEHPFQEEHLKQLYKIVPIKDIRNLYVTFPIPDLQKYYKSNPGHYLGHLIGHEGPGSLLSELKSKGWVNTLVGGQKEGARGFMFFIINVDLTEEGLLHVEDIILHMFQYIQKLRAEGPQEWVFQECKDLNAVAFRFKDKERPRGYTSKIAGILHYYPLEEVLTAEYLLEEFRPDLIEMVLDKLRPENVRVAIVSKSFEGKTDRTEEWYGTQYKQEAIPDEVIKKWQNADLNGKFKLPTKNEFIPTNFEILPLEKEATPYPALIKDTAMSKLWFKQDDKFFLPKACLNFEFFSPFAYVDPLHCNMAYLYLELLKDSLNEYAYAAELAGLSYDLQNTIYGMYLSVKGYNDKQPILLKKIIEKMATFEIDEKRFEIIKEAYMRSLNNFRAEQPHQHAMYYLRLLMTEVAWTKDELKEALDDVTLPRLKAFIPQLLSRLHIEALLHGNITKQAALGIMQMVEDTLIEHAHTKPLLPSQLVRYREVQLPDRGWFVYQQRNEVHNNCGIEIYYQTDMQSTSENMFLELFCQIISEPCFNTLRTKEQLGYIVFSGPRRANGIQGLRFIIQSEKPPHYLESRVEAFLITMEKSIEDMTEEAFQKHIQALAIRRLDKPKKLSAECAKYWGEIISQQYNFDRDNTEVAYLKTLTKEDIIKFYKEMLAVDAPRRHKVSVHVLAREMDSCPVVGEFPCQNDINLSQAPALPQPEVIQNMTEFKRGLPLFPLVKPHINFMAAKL

[6] = molecular target: Dual specificity tyrosine-phosphorylation-regulated kinase 1A (Rattus norvegicus, UniProt Q63470); format: biochemical, Homo sapiens
[7] = molecular target: Tyrosine-protein kinase ITK/TSK (Homo sapiens, UniProt Q08881); format: functional;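 also: affinity for ITK measured as one member of a broad kinase panel profiling binding across the kinome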
Sequence of Tyrosine-protein kinase ITK/TSK (Q08881 whole entry): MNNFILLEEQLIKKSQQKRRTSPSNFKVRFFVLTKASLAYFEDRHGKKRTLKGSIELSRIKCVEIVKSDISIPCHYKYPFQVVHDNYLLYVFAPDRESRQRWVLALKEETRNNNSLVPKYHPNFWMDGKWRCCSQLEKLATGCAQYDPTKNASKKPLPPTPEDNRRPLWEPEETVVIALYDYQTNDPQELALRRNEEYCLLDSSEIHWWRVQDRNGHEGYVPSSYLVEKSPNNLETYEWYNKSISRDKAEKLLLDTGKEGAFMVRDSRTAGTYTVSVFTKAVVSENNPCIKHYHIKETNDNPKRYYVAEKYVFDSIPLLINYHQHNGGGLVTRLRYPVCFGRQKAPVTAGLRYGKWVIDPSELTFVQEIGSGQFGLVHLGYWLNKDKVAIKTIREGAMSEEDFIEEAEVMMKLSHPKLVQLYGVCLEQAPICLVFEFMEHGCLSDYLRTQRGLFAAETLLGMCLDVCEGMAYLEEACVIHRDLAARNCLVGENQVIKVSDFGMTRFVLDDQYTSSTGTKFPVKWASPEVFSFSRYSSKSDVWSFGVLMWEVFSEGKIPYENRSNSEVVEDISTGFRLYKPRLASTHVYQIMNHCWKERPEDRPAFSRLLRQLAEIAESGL

Row | Ki [7] | Structure (SMILES) | AC50 [1] | IC50 [2] | EC50 [3] | EC50 [4] | EC50 [5] | AC50 [6]
1 | – | Cc1ccc(C(=O)NC2(O)C(=O)c3ccccc3C2=O)cc1C | 6.83 µM (active) | 5.74 µM (active) | – | – | – | –
2 | – | O=[N+]([O-])c1c(Nc2ccccn2)cc(Cl)c2nonc12 | – | 99.4 µM (inactive) | – | – | – | –
3 | – | CC[C@@H](C)[C@H](CNC)NC[C@@H](Cc1cccc2ccccc12)NCCc1cccc(C(F)(F)F)c1 | – | – | 4.8 µM (active) | 7.12 µM (active) | > 54.7 µM (inactive) | 79 µM (active)
4 | – | Cc1ccc(S(=O)(=O)/N=C2\C=C(Nc3cccc(C(=O)O)c3)C(=O)c3ccccc32)cc1 | 0.422 µM (active) | 3.18 µM (active) | 4.62 µM (active) | 14.3 µM (active) | – | 2.57 µM (active)
5 | > 1.58 µM (inactive) | CC(C)(CO)CNc1nccc(-c2c(-c3ccc(F)cc3)nc3c(CC4CC4)nccn23)n1 | – | – | – | – | – | –
